This assay relates to E. coli K-12 MG 1655. The experiment in a line: microbial growth assay by impedance (capacitance and resistance) measurement in 30 μl wells. It counts as cell-based. As to conditions: 37° C. On the procedure: As an example of the utilization of the apparatus 20 of FIGS. 1 and 2, a single colony of E. coli K-12 MG 1655 was used to inoculate five ml of Luria Broth (LB) which was grown overnight at 37° C. with constant aeration. A 1% inoculum was used to subculture in fresh LB medium and grew to OD600 of 0.5 (measured by a Beckman DU-20 spectrophotometer). 15 μl of cell culture was mixed with 15 μl of LB medium in samples with and without ampicillin (100 μg/ml), and aliquoted into the wells 22. In addition, an equal volume of LB medium (30 μl) with ampicillin was aliquoted into an additional well to function as a negative control.
The switch/control unit 34 was used to switch the connection of the LCR meter 36 to the conductors 30 and 31 leading to the electrodes of the wells 22 in sequence. A 10 mV rms alternating current signal of varying frequency (between 75 kHz and 30 MHz) was used for electrical excitation and was applied between the electrodes 24 and 25. […] At each frequency, impedance (capacitance and resistance) was measured between the electrodes 24 and 25 for each of the four wells. […] The values of the impedance (assuming a parallel RC equivalent circuit model, resistance and capacitance, R and C) between the electrodes 24 and 25 at each of the cells was recorded periodically over about 16 hours under the control of the computer 41. […]

With `CC1(C)S[C@@H]2[C@H](NC(=O)[C@H](N)c3ccccc3)C(=O)N2[C@H]1C(=O)O` [ampicillin], the “capacitance (and resistance) between the electrodes at a well containing bacteria over time” value (ampicillin 100 μg/ml in LB medium, measured at 75 kHz and 400 kHz, about 16 hours, relative to control well without bacteria, without ampicillin capacitance increases exponentially) is reported as “remains constant”. Moreover, the “time within which the antibacterial effect can be detected” value (ampicillin 100 μg/ml, E. coli in LB medium, impedance readout) was “less than one hour”.
